# pIC50: −log10 of the molar value.
# How the values were obtained:
# [1] = test system: orthotopic E98 GBM tumors; assay: Orthotopic E98 GBM xenograft efficacy in Abcb1a/b;Abcg2-/- mice; type: in vivo
# Method: Orthotopic GBM tumors were induced in Abcb1a/b; Abcg2^−/− mice by stereotactic injection of E98 cells expressing firefly luciferase (200,000 cells in 2 µL HBSS (Life Technologies) at an injection speed of 1 µL/min) at 2 mm lateral, 1 mm anterior and 3 mm ventral to the bregma. Tumor growth was monitored using bioluminescence imaging by injecting D-luciferin (150 mg/kg i.p.; Promega, Madison, WI) and subsequently imaging mice on an IVIS Spectrum Imaging System (PerkinElmer, Waltham, MA). Survival was monitored daily and the humane endpoint was defined as body weight loss exceeding 20%. Time-to-recurrence was defined as the number of days elapsed until the tumor regained its pre-treatment size. Tumors were treated with CT-guided radiotherapy (2–3.5 Gy per fraction) using an X-RAD 225Cx system (Precision X-Ray, North Branford, CT), temozolomide (10 mg/kg p.o. freshly prepared from powder in an aqueous solution containing 10% v/v ethanol), NTRC0066-0 (20, 10 or 5 mg/kg p.o. in an aqueous solution containing 10% v/v DMSO and 10% v/v Cremophor EL (Life Technologies)) or different combinations thereof, as described per experiment in the Figure legends.
# [2] = test system: orthotopic E98 GBM tumors; assay: Quantification of mitotic errors in E98 tumors; type: in vivo, mice; conditions: end-stage E98 tumors, 5/10 mg/kg b.i.d.x7d
# Method: Tumor-bearing mouse brains were formalin-fixed, paraffin-embedded and coronal Sect. (10 μm) were sliced using an RM2255 microtome (Leica, Wetzlar, Germany). Sections were subsequently deparaffinized using xylene, incubated in citrate buffer for antigen retrieval, blocked with 4% (w/v) BSA in TBS-T, incubated with rabbit-α-pH3^Ser10 (1:250 for 3 h at room temperature; Merck Millipore, Burlington, MA), incubated with goat-α-rabbit-AF568 (1:250 for 45 min at room temperature; Thermo Fisher Scientific, Waltham, MA) and mounted with Vectashield hardset antifade mounting medium with DAPI (Vector Laboratories, Burlingame, CA). Mitotic errors were imaged and scored using a Deltavision ultra high resolution microscope (Applied Precision Inc., Issaquah, WA).
# HS683 = assay: Cell survival assay (crystal violet), continuous exposure; type: cell-based, human; conditions: Fig. 1A
# Method: (§1) Wells were pre-coated with poly-ornithine (15 µg/ml for 3 h at room temperature) and subsequently with laminin (7.5 µg/ml for 1 h at 37 °C) prior to seeding GSCs to make them adherent without inducing differentiation. […] Cells were plated in 24-wells plates at low cell densities (2,000–10,000 cells/well) and exposed to different concentrations of NTRC0066-0 24 h later. NTRC0066-0 was dissolved in DMSO (Sigma-Aldrich) for in vitro experiments and final DMSO concentrations never exceeded 0.1%. When untreated wells were confluent (approximately 6–10 days after seeding, dependent on the cell line), cells were fixed and stained using a solution containing 0.5% crystal violet (w/v; Sigma-Aldrich) and 6% glutaraldehyde (v/v; Honeywell, Morris Plains, NJ). Plates were imaged using a Chemi-Doc XRS+ (Bio-rad, Hercules, CA) and analyzed using the Colony Area plugin of ImageJ [24]. IC50 curves were fitted and plotted using the ‘log(inhibitor) vs. normalized response – Variable slope’ fitting procedure of GraphPad Prism v10.3 (GraphPad Software, La Jolla, CA). Monotherapy curves were corrected for untreated controls.
# E98 = assay: as above; type: cell-based, human; conditions: Fig. 1A
# Method: as §1
# [3] = E98 tumors, 5/10 mg/kg b.i.d.x7d monotherapy
# [4] = adjuvant: 5/10 mg/kg b.i.d.x7d after RT + TMZ vs RT + TMZ alone
# [5] = recurrent E98 tumors after TMZ + RT, 20 mg/kg q.2d.x11d second-line
# [6] = therapy-naive E98 tumors, 20 mg/kg q.2d.x11d monotherapy
compound,measurement,setting,value
CCc1cccc(CC)c1NC(=O)c1ccn2c1CCc1cnc(Nc3ccc(N4CCN(C)CC4)cc3OC)nc1-2 [NTRC 0066-0],Survival,[1]; [3],did not observe any delay in tumor growth (Fig. 4H) or survival
same,Tumor growth,[1]; [3],did not observe any delay in tumor growth
same,Survival,[1]; [4],not affected
same,Time-to-recurrence,[1]; [4],not different between treatment groups
same,Tumor growth,[1]; adjuvant: 5/10 mg/kg b.i.d.x7d from day 3 after RT + TMZ (2 Gy + 10 mg/kg q.d.x2d) vs RT + TMZ alone,could not observe any effects on tumor growth
same,Animals with tumor growth delay,[1]; [5],2 out of 7
same,Long-term survivors,[1]; [5],one long-term survivor
same,Survival,[1]; [6],did not result in reduced tumor growth (Fig. 4A) or improved survival
same,Tumor growth,[1]; [6],did not result in reduced tumor growth
same,Number of mitotic errors in tumors,[2],did not increase the number of mitotic errors
same,pIC50,HS683,7.38
same,pIC50,E98,7.64
